± gives the expanded uncertainty stated by the source.
Assay: mn = molality of the nth substance listed, in mol/kg
Settings: 101 kPa, Liquid

NO.O=S(=O)(O)O [hydroxylammonium hydrogen sulfate] + O
Settings	mass density, 283.15 K [kg/m3]	mass density, 288.15 K [kg/m3]	mass density, 293.15 K [kg/m3]	mass density, 298.15 K [kg/m3]	viscosity, 298.15 K [mPa·s]
m1 = 0.0075	1000.57 ± 0.19	999.95 ± 0.19	999.03 ± 0.19	997.89 ± 0.19	–
m1 = 0.0204	–	–	–	–	0.897 ± 0.011
m1 = 0.038	1003.84 ± 0.19	1003.18 ± 0.19	1002.23 ± 0.19	1001.03 ± 0.18	–
m1 = 0.0473	–	–	–	–	0.909 ± 0.011
m1 = 0.0702	1007.27 ± 0.19	1006.56 ± 0.19	1005.58 ± 0.19	1004.34 ± 0.19	0.914 ± 0.011
m1 = 0.2199	1022.47 ± 0.2	1021.57 ± 0.2	1020.43 ± 0.2	1019.05 ± 0.2	–
m1 = 0.2315	–	–	–	–	0.968 ± 0.012
m1 = 0.3709	1036.87 ± 0.22	1035.81 ± 0.22	1034.52 ± 0.21	1033.05 ± 0.21	1.019 ± 0.013
m1 = 0.4314	1042.64 ± 0.22	1041.22 ± 0.22	1039.97 ± 0.22	1038.36 ± 0.22	1.035 ± 0.013
m1 = 0.5334	1051.59 ± 0.23	1050.39 ± 0.23	1048.98 ± 0.23	1047.39 ± 0.23	1.069 ± 0.013
m1 = 0.8069	1075.32 ± 0.26	1073.9 ± 0.26	1071.96 ± 0.26	1070.2 ± 0.25	1.167 ± 0.014
m1 = 0.9684	1088.31 ± 0.28	1086.8 ± 0.28	1085.12 ± 0.27	1083.29 ± 0.27	–
m1 = 1.044	–	–	–	–	1.256 ± 0.015
m1 = 1.165	1103.23 ± 0.3	1101.58 ± 0.3	1099.81 ± 0.3	1097.89 ± 0.29	–
m1 = 1.324	–	–	–	–	1.369 ± 0.016
m1 = 1.478	1126.68 ± 0.34	1124.91 ± 0.33	1123 ± 0.33	1120.96 ± 0.33	–
m1 = 1.589	–	–	–	–	1.483 ± 0.018
m1 = 1.851	1151.94 ± 0.38	1149.99 ± 0.37	1147.92 ± 0.37	1145.49 ± 0.37	–
m1 = 1.915	–	–	–	–	1.631 ± 0.019
m1 = 2.088	–	–	–	–	1.732 ± 0.02
m1 = 2.461	1188.98 ± 0.43	1186.87 ± 0.43	1184.69 ± 0.43	1182.41 ± 0.42	–
m1 = 2.847	–	–	–	–	2.123 ± 0.024
m1 = 2.998	1218.05 ± 0.48	1215.84 ± 0.48	1213.55 ± 0.47	1211.21 ± 0.47	–
